# Measured values: ChEMBL document CHEMBL4418271, “Novel Ethanediamone Hepcidine Antagonists” (2012)
# Biological target: Ferroportin (Homo sapiens, UniProt Q9NP59)
# Experiment: Inhibition of human hepcidin-stimulated recombinant C-terminal Halo-tagged human FPN internalization in MDCK cells incubated for 15 to 20 mins by Halo-tagged TMR based fluorescence assay
# Format: cell-based
# Chain of Ferroportin (Q9NP59 whole entry, looked up): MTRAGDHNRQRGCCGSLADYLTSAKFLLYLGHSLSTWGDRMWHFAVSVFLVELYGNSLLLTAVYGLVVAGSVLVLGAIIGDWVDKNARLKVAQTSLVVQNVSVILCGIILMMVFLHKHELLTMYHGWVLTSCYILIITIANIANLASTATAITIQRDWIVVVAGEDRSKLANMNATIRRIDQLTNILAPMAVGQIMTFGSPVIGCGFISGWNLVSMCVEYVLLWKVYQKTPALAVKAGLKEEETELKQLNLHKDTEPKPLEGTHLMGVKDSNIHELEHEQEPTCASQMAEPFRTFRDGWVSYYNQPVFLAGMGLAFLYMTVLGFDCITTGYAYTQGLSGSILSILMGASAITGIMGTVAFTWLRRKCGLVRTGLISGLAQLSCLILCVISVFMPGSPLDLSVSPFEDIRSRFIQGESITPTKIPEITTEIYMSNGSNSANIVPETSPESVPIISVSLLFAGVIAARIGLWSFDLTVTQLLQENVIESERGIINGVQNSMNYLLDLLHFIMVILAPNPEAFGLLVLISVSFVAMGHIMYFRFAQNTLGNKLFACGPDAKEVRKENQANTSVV
row,IC50,Compound
1,< 50 µM,COCCCN1CCN(C(CN2CCC(N3CCCCC3)CC2)c2ccccc2)CC1 (configuration not stated)
2,> 100 µM,COCCN1CCN(C(CN2CCC(N3CCCCC3)CC2)c2ccc(Cl)cc2)CC1 (configuration not stated)
3,> 100 µM,CCCCN1CCN(C(CN2CCC(N3CCCCC3)CC2)c2ccccc2)CC1 (configuration not stated)
4,> 100 µM,COCCN1CCN(C(CN2CCC(N3CCN(C)CC3)CC2)c2ccccc2)CC1 (configuration not stated)
5,< 50 µM,COCCN1CCN(C(CN2CCC(N3CCCCC3)CC2)c2ccccc2)CC1 (configuration not stated)
6,< 50 µM,COCCN1CCN(C(CN2CCC(N3CCCC3)CC2)c2ccccc2)CC1 (configuration not stated)
7,> 100 µM,O=C(C1CCCO1)N1CCN(C(CN2CCC(N3CCCCC3)CC2)c2ccccc2)CC1 (configuration not stated)
8,< 50 µM,COCCN1CCN(C(CN2CCC(N3CCOCC3)CC2)c2ccccc2)CC1 (configuration not stated)
9,< 50 µM,COCCN1CCN(C(CN2CCC(N3CCCCC3)CC2)c2ccc(C(F)(F)F)cc2)CC1 (configuration not stated)
10,> 100 µM,COCCN1CCN(C(CN2CCC(NC(=O)c3ccccc3)CC2)c2ccccc2)CC1 (configuration not stated)
11,> 100 µM,c1ccc(C(CN2CCC(N3CCCCC3)CC2)N2CCN(c3ccccn3)CC2)cc1 (configuration not stated)
12,< 50 µM,COCCN1CCN(C(CN2CCC(N3CCCCC3)CC2)c2ccc(C#N)cc2)CC1 (configuration not stated)
13,> 100 µM,CCOC(=O)C1CCN(CC(c2ccccc2)N2CCN(CCOC)CC2)CC1 (configuration not stated)
14,< 50 µM,COCCN1CCN(C(CN2CCC(NC3CCCC3)CC2)c2ccccc2)CC1 (configuration not stated)
15,> 100 µM,COCCN1CCN(C(CN2CCC(N3CCCCC3)CC2)c2ccc(OC(C)C)cc2)CC1 (configuration not stated)
16,< 50 µM,CCOCCN1CCN(C(CN2CCC(N3CCCCC3)CC2)c2ccccc2)CC1 (configuration not stated)
17,> 100 µM,O=C(C1CCCO1)N1CCN(CC(NCc2cccs2)c2ccc(F)cc2)CC1 (configuration not stated)
18,> 100 µM,Fc1cccc(C(CN2CCN(c3cnccn3)CC2)NCc2ccccn2)c1 (configuration not stated)
19,> 100 µM,O=C(c1ccccn1)N1CCN(CC(NCc2ccccn2)c2ccc(F)cc2)CC1 (configuration not stated)
20,< 50 µM,COCCN1CCN(C(CN2CCC(N3CCCCC3)CC2)c2ccc(C)cc2)CC1 (configuration not stated)
21,> 100 µM,COc1ccc(CNC(CN2CCCCC2)c2ccccc2)cc1 (configuration not stated)
22,< 50 µM,COCCN1CCN(C(CN2CCC(NC(=O)C3CCCCC3)CC2)c2ccccc2)CC1 (configuration not stated)

row,IC50,Compound
1,> 50 µM,Fc1ccc(C(CN2CCN(c3cnccn3)CC2)NCc2ccccc2)cc1 (configuration not stated)
2,> 100 µM,NC(CN1CCN(C(=O)C2CCCO2)CC1)c1ccc(F)cc1 (configuration not stated)
3,> 100 µM,c1ccc(CNC(CN2CCN(c3cnccn3)CC2)c2ccncc2)nc1 (configuration not stated)
4,> 100 µM,NC(CN1CCN(c2cnccn2)CC1)c1ccc(F)cc1 (configuration not stated)
5,> 100 µM,O=C(C1CCCO1)N1CCN(CC(NCc2ccccc2)c2ccc(F)cc2)CC1 (configuration not stated)
6,> 100 µM,COCCN1CCN(C(CN2CCC(C(=O)NC3CCCCC3)CC2)c2ccccc2)CC1 (configuration not stated)
7,> 100 µM,c1ccc(C(CN2CCC(N3CCCCC3)CC2)N2CCN(c3cnccn3)CC2)cc1 (configuration not stated)
8,> 100 µM,O=S(=O)(c1ccccc1)N1CCN(CC(NCc2ccccn2)c2ccc(F)cc2)CC1 (configuration not stated)
9,> 100 µM,CC(C)N1CCN(C(CN2CCC(N3CCCCC3)CC2)c2ccccc2)CC1 (configuration not stated)
10,< 100 µM,COCCN1CCN(C(CN2CCC(C(=O)Nc3ccccc3)CC2)c2ccccc2)CC1 (configuration not stated)
11,> 100 µM,COCCC1CCN(C(CN2CCC(N3CCCCC3)CC2)c2ccccc2)CC1 (configuration not stated)
12,> 100 µM,Fc1ccc(C(CN2CCN(c3ccccn3)CC2)NCc2ccccn2)cc1 (configuration not stated)
13,> 50 µM,Fc1ccc(C(CN2CCN(c3cnccn3)CC2)NCc2cccs2)cc1 (configuration not stated)
14,< 100 µM,COCCN1CCN(C(CN2CCC(NC(C)=O)CC2)c2ccccc2)CC1 (configuration not stated)
15,< 50 µM,CCN(CC)C1CCN(CC(c2ccccc2)N2CCN(CCOC)CC2)CC1 (configuration not stated)
16,> 100 µM,CCOc1ccc(C(CN2CCC(N3CCCCC3)CC2)N2CCN(CCOC)CC2)cc1 (configuration not stated)
17,< 100 µM,CNC(=O)C1CCN(CC(c2ccccc2)N2CCN(CCOC)CC2)CC1 (configuration not stated)
18,> 100 µM,c1ccc(C(CN2CCC(N3CCCCC3)CC2)N2CCN(CCn3ccnc3)CC2)cc1 (configuration not stated)
19,< 50 µM,CN(CCN(C)c1cnccn1)CC(NCc1ccccn1)c1ccc(F)cc1 (configuration not stated)
20,> 100 µM,Fc1ccccc1C(CN1CCN(c2cnccn2)CC1)NCc1ccccn1 (configuration not stated)
21,> 100 µM,COCCN1CCN(C(CN2CCC(N3CCCCC3)CC2)c2cccc(Cl)c2)CC1 (configuration not stated)
22,> 100 µM,COCCNC(CN1CCN(C(=O)C2CCCO2)CC1)c1ccc(F)cc1 (configuration not stated)

row,IC50,Compound
1,> 100 µM,Fc1ccc(C(CN2CCN(c3ccccc3)CC2)NCc2ccccn2)cc1 (configuration not stated)
2,> 100 µM,COCCN1CCN(C(CN2CCC(C3CCCCC3)CC2)c2ccccc2)CC1 (configuration not stated)
3,< 100 µM,COCCN1CCN(C(CN2CCC(N3CCC(C)CC3)CC2)c2ccccc2)CC1 (configuration not stated)
4,> 100 µM,CCN(CC)CCN1CCN(C(CN2CCC(N3CCCCC3)CC2)c2ccccc2)CC1 (configuration not stated)
5,< 50 µM,COc1ccccc1C(=O)N1CCN(CC(NCc2ccccn2)c2ccc(F)cc2)CC1 (configuration not stated)
6,< 100 µM,c1ccc(C(CN2CCC(N3CCCCC3)CC2)NCCN2CCOCC2)cc1 (configuration not stated)
7,> 100 µM,Clc1ccc(C(CN2CCN(c3cnccn3)CC2)NCc2ccccn2)cc1 (configuration not stated)
8,> 100 µM,O=C(C1CCCO1)N1CCN(CC(NCc2ccccc2)c2ccccc2)CC1 (configuration not stated)
9,< 50 µM,COCCN1CCN(C(CN2CCC(N3CCCCC3)CC2)c2ccc(F)cc2)CC1 (configuration not stated)
10,< 50 µM,COCCN1CCN(C(CN2CCC(N3CCCCC3)CC2)c2ccc(OC)cc2)CC1 (configuration not stated)
11,> 100 µM,COCCN1CCN(C(CN2CCC(N3CCCCC3)CC2)c2ccccc2Cl)CC1 (configuration not stated)
12,> 100 µM,c1ccc(C(CN2CCN(c3cnccn3)CC2)NCc2ccccn2)cc1 (configuration not stated)
13,< 50 µM,Fc1ccc(C(CN2CCN(c3cnccn3)CC2)NCc2ccccn2)cc1 (configuration not stated)
14,< 100 µM,COc1ccc(CNC(CN2CCC(N3CCCCC3)CC2)c2ccccc2)cc1 (configuration not stated)
15,< 50 µM,COCCN1CCN(C(CN2CCC(N(C)C)CC2)c2ccccc2)CC1 (configuration not stated)
16,< 100 µM,c1ccc(C(CN2CCCCC2)NCCN2CCOCC2)cc1 (configuration not stated)
17,> 100 µM,COCCNC(CN1CCN(c2cnccn2)CC1)c1ccc(F)cc1 (configuration not stated)
18,> 100 µM,CC(=O)N1CCN(CC(NCc2ccccn2)c2ccc(F)cc2)CC1 (configuration not stated)
19,< 100 µM,COCCN1CCN(C(CN2CCC(N3CCCCC3)CC2)c2cccc(OC)c2)CC1 (configuration not stated)
20,< 50 µM,c1ccc(C(CN2CCC(N3CCCCC3)CC2)N2CCN(CC3CCCO3)CC2)cc1 (configuration not stated)
21,< 50 µM,COCCN1CCCN(C(CN2CCC(N3CCCCC3)CC2)c2ccccc2)CC1 (configuration not stated)

row,Compound,IC50
1,COCCN1CCN(C(CN2CCOCC2)c2ccccc2)CC1 (configuration not stated),> 100 µM
2,c1ccc(C(CN2CCC(N3CCCCC3)CC2)N2CCN(C3CCCC3)CC2)cc1 (configuration not stated),> 100 µM
3,COCCN1CCN(C(CN2CCN(c3ccccc3)CC2)c2ccccc2)CC1 (configuration not stated),> 100 µM
4,COCCN1CCN(C(CN2CCC(Nc3ccccc3)CC2)c2ccccc2)CC1 (configuration not stated),> 100 µM
5,COCCN1CCN(C(CN2CCCCC2)c2ccccc2)CC1 (configuration not stated),< 100 µM
6,COCCN1CCN(C(CN2CCC(NC(=O)C(C)C)CC2)c2ccccc2)CC1 (configuration not stated),< 100 µM

# Biological target: T1, Hepcidin (Homo sapiens) (UniProt P81172)
# T1 sequence (whole entry): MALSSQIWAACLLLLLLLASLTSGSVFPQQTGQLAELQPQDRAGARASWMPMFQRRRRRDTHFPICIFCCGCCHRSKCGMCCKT
# Experiment: Inhibition of human hepcidin-stimulated recombinant C-terminal Halo-tagged human FPN internalization in MDCK cells at 10 uM incubated for 15 to 20 mins by Halo-tagged TMR based fluorescence assay relative to control
# Format: cell-based
row,inhibition,Compound
1,> 50%,COCCN1CCN(C(CN2CCC(N3CCCCC3)CC2)c2ccccc2)CC1 (configuration not stated)
2,< 50%,O=C(C1CCCO1)N1CCN(CC(NCc2ccccn2)c2ccccc2)CC1 (configuration not stated)
3,< 50%,O=C(C1CCCO1)N1CCN(CC(NCc2ccccn2)c2ccc(F)cc2)CC1 (configuration not stated)
4,< 50%,c1ccc(C(CN2CCC(N3CCCCC3)CC2)NCCN2CCOCC2)cc1 (configuration not stated)
5,> 50%,Fc1ccc(C(CN2CCN(c3cnccn3)CC2)NCc2ccccn2)cc1 (configuration not stated)
6,< 50%,COc1ccc(CNC(CN2CCC(N3CCCCC3)CC2)c2ccccc2)cc1 (configuration not stated)
